The values below come from patent US9751885B2, “Cyclopropanamine compound and use thereof” (Takeda Pharmaceutical Company Limited, priority 2012, dated 2017).

One series concerns the target human LSD1(172-833) (Homo sapiens (Human), UniProt O60341). Kind of series: Measurement of LSD1 inhibitory activity (time-resolved fluorescence, biotin-histone H3 mono methylated K4 peptide). The series is classed as biochemical. The gist of the method: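 Remaining signal detected by TR-FRET after 60 min with europium anti-histone H3 antibody and streptavidin-XL665 in potassium fluoride/0.1% BSA.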

The next series deals with MAO-A enzyme (Homo sapiens (Human), UniProt P21397). Kind of series: Measurement of MAO-A inhibitory activity (MAO-Glo Assay). Type of series: biochemical.
Sequence of MAO-A enzyme (P21397 whole entry): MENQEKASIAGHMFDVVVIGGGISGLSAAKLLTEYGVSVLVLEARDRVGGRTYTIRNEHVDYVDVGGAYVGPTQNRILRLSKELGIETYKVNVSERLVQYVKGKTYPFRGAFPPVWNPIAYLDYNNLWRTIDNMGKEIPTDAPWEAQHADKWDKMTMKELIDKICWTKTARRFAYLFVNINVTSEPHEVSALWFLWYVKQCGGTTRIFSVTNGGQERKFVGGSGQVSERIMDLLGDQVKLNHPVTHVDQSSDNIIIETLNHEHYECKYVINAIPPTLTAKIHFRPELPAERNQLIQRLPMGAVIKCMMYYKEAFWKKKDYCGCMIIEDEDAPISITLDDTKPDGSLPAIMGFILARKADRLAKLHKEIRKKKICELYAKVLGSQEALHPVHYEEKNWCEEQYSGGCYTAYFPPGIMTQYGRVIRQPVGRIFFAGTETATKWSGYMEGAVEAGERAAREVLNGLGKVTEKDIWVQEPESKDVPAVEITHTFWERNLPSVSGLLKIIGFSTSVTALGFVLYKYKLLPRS
For series [1], the system named is Gad1 H3K4me2 level in rat primary culture neurons. Kind of series: Gad1 H3K4 methylation induction activity in rat primary culture neurons (ChIP-qPCR). Particulars: Neuron, 72 h, control without compound = 100%. Type of series: cell-based. In general terms: Quantitative PCR measures a nucleic acid by following its amplification.
Another series deals with MAO-B enzyme (Homo sapiens (Human), UniProt P27338). As to the kind of experiment: Measurement of MAO-B inhibitory activity (MAO-Glo Assay).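 Also: luminescence read-out, compound preincubated 10 min with enzyme then reacted 60 min at room temperature, inhibition relative to enzyme reaction without compound, blank lacking enzyme and compound.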 The following applies: read-out: MAO-B IC50 value.
Sequence of MAO-B enzyme (P27338 whole entry): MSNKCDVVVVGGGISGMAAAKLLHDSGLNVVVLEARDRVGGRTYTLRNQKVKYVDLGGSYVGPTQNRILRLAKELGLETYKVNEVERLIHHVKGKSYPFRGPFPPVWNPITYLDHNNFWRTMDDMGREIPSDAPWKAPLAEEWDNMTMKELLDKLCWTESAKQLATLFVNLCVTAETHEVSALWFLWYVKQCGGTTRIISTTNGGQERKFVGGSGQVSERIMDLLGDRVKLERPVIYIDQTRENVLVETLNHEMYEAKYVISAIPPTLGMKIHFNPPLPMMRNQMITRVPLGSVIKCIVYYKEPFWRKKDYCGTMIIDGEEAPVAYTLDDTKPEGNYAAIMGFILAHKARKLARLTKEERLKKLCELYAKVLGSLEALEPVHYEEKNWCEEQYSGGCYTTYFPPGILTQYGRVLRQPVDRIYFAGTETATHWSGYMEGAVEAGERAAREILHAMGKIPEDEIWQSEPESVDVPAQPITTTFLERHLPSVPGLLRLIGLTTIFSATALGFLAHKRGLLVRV
Series [2] deals with white blood cell number, red blood cell number, platelet number. Kind of series: Evaluation of blood cell number in mouse. The series is classed as in vivo. The following applies: oral, Day 2 after administration. The gist of the method:
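Male ICR mice dosed orally at 1, 10, 50 or 100 mg/kg (suspension in 0.5% methylcellulose/0.02% citric acid/water); whole blood collected on Day 2. White cell, red cell and platelet counts per unit volume by automated haematology analyser, expressed as % of mean of untreated control group.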

Series [3] is described as follows: Evaluation of hippocampal distribution in mouse. The series is classed as in vivo. Particulars: male ICR mice, 10 mg/kg oral; for concentration at 0.5 h: 0.5 hr after administration; for concentration at 1 h: 1 hr after administration. The gist of the method:
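Male ICR mice dosed orally at 10 mg/kg as suspension in 0.5% methylcellulose/0.02% citric acid/water. Plasma and hippocampus sampled together at 0.5, 1 or 1.5 h; LC/MS/MS concentrations gave hippocampus/plasma ratio.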

Setting [4] is: compound 1 μM, 3 days, rat primary culture neurons, read-out: Gad1 H3K4me2 induction activity (%).
The mark [5] stands for this setting: compound 10 μM, 3 days, rat primary culture neurons, read-out: Gad1 H3K4me2 induction activity (%).
Setting [6] is: Rattus norvegicus, read-out: Gad1 H3K4me2 induction activity (%), compound 1 μM, 3 days, rat primary culture neurons.
Where [7] appears, read: Rattus norvegicus, read-out: Gad1 H3K4me2 induction activity (%), compound 10 μM, 3 days, rat primary culture neurons.
The mark [8] stands for this setting: hippocampus, read-out: hippocampus concentration (mean).
The mark [9] stands for this setting: plasma, read-out: plasma concentration (mean).

Structures can show the parent of a compound that is named as a salt. Where two headings read alike, the source gives them in different places. Marks after values point to notes of the source that are not given here.

Experimental for MAO-B enzyme: The MAO-B inhibitory activity evaluation described below followed the protocol of MAO-Glo (registered trademark) Assay of Promega KK.
A test compound dissolved in 4% DMSO was added by 12.5 μL to 25 μL reaction solution (100 mM HEPES (pH 7.5), 5% glycerol, 10% DMSO) containing 400 ng of MAO-B enzyme (Sigma-Aldrich Co. LLC.), and the mixture was reacted at room temperature for 10 min. […] After reaction at room temperature for 60 min, Luciferine detection reagent (Promega KK) (50 μL) was added to terminate the reaction. After reaction at room temperature for 20 min with stirring, the luminescence was measured by Envision (PerkinElmer). The MAO-B inhibitory rate (%) of the test compound was calculated by the following formula. inhibitory rate(%)=(1−(test compound count−blank)÷(control−blank))×100
The count of the MAO-B enzyme reaction mixture under compound non-addition conditions is indicated as control, and the count under compound non-addition and MAO-B enzyme non-addition conditions is indicated as blank.

Take `Cc1ncc(NC(=O)c2cccc([C@@H]3C[C@H]3NC3CCOCC3)c2)s1` (relative stereo) [Example 212, N-(2-methyl-1,3-thiazol-5-yl)-3-(trans-2-(tetrahydro-2H-pyran-4-ylamino)cyclopropyl)benzamide dihydrochloride]: the values for the IC50 on human LSD1(172-833), at MAO-A enzyme and at MAO-B enzyme were less than 0.1 µM, greater than 10 µM and greater than 10 µM, respectively. Moreover, the activity at 1 µM in series [1] (setting [4]) was determined as 201%. Besides, the activity at 10 µM in series [1] (setting [5]) was 289%.
`O=C(Nc1cnn(CC2CC2)c1)c1cccc([C@@H]2C[C@H]2NCC2CC2)c1` (relative stereo) [Example 77, 3-(trans-2-((cyclopropylmethyl)amino)cyclopropyl)-N-(1-(cyclopropylmethyl)-1H-pyrazol-4-yl)benzamide dihydrochloride]: the IC50 against human LSD1(172-833) is less than 0.1 µM; against MAO-A enzyme, greater than 10 µM; at MAO-B enzyme, greater than 10 µM. Besides, the activity at 1 µM in series [1] (setting [6]) turned out to be 165%. The activity at 10 µM in series [1] (setting [7]) is 163%. The figures for the “platelet number, percentage of compound administration group compared to control group, mean” value (shortened to “platelet number, percentage”) in series [2] (10 mg/kg) and in series [2] (100 mg/kg) were 99.6% and 96.6%, respectively. Also, the “red blood cell number, percentage of compound administration group compared to control group, mean” value (“red blood cell number, percentage” for short) is reported as 98.2% in series [2] (10 mg/kg) and 100.9% in series [2] (100 mg/kg). Also, the “white blood cell number, percentage of compound administration group compared to control group, mean” value (from here on “white blood cell number, percentage”) in series [2] (10 mg/kg) came out at 147.9%; in series [2] (100 mg/kg) it was 98.2%.
Consider `O=C(Nc1ccc(-c2ncccn2)cc1)c1cccc([C@@H]2C[C@H]2NCC2CC2)c1` (relative stereo) [Example 58, 3-(trans-2-((cyclopropylmethyl)amino)cyclopropyl)-N-(4-(pyrimidin-2-yl)phenyl)benzamide dihydrochloride], for which the IC50 was less than 0.1 µM against human LSD1(172-833), greater than 10 µM on MAO-A enzyme and greater than 10 µM at MAO-B enzyme. The activity at 1 µM in series [1] (setting [6]) worked out at 126%. Besides, the activity at 10 µM in series [1] (setting [7]) is 116%. Further, the “platelet number, percentage” value in series [2] (10 mg/kg) is on record as 99.4%; in series [2] (50 mg/kg) it was 102.9^a %. The “red blood cell number, percentage” value in series [2] (10 mg/kg) is 99.7%; in series [2] (50 mg/kg) it was 101.3^a %. The “white blood cell number, percentage” value in series [2] (10 mg/kg) is 94.2%; in series [2] (50 mg/kg), 85.8^a %.
On to `Cc1nnc(NC(=O)c2ccc(F)c([C@@H]3C[C@H]3NCC3CC3)c2)s1` (relative stereo) [Example 109, 3-(trans-2-((cyclopropylmethyl)amino)cyclopropyl)-4-fluoro-N-(5-methyl-1,3,4-thiadiazol-2-yl)benzamide dihydrochloride], for which the concentration at 0.5 h in series [3] (setting [8]) stood at 1610 ng/g; in series [3] (setting [9]) it was 1250 ng/mL. The values for the half-inhibitory concentration (IC50) on human LSD1(172-833), on MAO-A enzyme and on MAO-B enzyme were less than 0.1 µM, greater than 10 µM and greater than 10 µM, respectively. In series [1] (setting [4]), the activity at 1 µM was found to be 117%. The activity at 10 µM in series [1] (setting [5]) was 96%. For the same compound, the “platelet number, percentage” value was 94.3% in series [2] (10 mg/kg) and 97.8% in series [2] (100 mg/kg). The “red blood cell number, percentage” value in series [2] (10 mg/kg) came to 96.3%; in series [2] (100 mg/kg) it was 98.2%. Moreover, the “white blood cell number, percentage” value amounted to 88.3% in series [2] (10 mg/kg) and 107.4% in series [2] (100 mg/kg).
In the case of `Cc1cc(NC(=O)c2cccc([C@@H]3C[C@H]3NCC3CC3)c2)on1` (relative stereo) [Example 106, 3-(trans-2-((cyclopropylmethyl)amino)cyclopropyl)-N-(3-methyl-1,2-oxazol-5-yl)benzamide hydrochloride], the concentration at 1 h is 107 ng/g in series [3] (setting [8]) and 33 ng/mL in series [3] (setting [9]). Further, the IC50 is less than 0.1 µM on human LSD1(172-833), greater than 10 µM against MAO-A enzyme and greater than 10 µM on MAO-B enzyme. Also, the activity at 1 µM in series [1] (setting [4]) worked out at 139%. In addition, in series [1] (setting [5]), the activity at 10 µM stood at 132%. Moreover, the “platelet number, percentage” value was found to be 94.6% in series [2] (10 mg/kg) and 97.2% in series [2] (100 mg/kg). In addition, the “red blood cell number, percentage” value in series [2] (10 mg/kg) is on record as 99.4%; in series [2] (100 mg/kg) it was 101.9%. Also, the “white blood cell number, percentage” value in series [2] (10 mg/kg) was 114.8%; in series [2] (100 mg/kg), 89.0%.
As for `O=C(NC1CCN(CC(F)(F)F)CC1)c1cccc([C@@H]2C[C@H]2NCC2CC2)c1` (relative stereo) [Example 108, 3-(trans-2-((cyclopropylmethyl)amino)cyclopropyl)-N-(1-(2,2,2-trifluoroethyl)piperidin-4-yl)benzamide dihydrochloride], the concentration at 0.5 h in series [3] (setting [8]) came to 983 ng/g. In series [3] (setting [9]), the concentration at 0.5 h was 684 ng/mL. The activity at 1 µM in series [1] (setting [6]) was 384%. Also, the activity at 10 µM in series [1] (setting [7]) stood at 268%. Moreover, in series [2] (10 mg/kg), the “platelet number, percentage” value is on record as 101.9%; the “red blood cell number, percentage” value worked out at 99.0%; the “white blood cell number, percentage” value was determined as 127.7%. Also, in series [2] (100 mg/kg), the “platelet number, percentage” value was determined as 94.2%; the “red blood cell number, percentage” value was 98.7%; the “white blood cell number, percentage” value was found to be 129.4%.

What is called IC50 is the concentration at which inhibition is half-maximal.
